PubChem BioAssay (NCI)
“And” between values parts separate entries of the source, which are not always exact repeats. Equal entries are not always repeated.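 96-well plates; 48 h exposure; 5 concentrations. Endpoints by linear interpolation between flanking doses. Not reached: highest tested concentration assigned. Here, GI50 denotes the concentration required for 50% inhibition of growth. TGI: total growth inhibition.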

Experiments:
Assay in all cases: NCI anticancer screen, dose series, 48 h
SR leukemia = tested on: SR leukemia
MDA-MB-435 = tested on: MDA-MB-435
NCI-H460 lung = tested on: NCI-H460 lung
IGROV1 ovarian = tested on: IGROV1 ovarian
CCRF-CEM leukemia = tested on: CCRF-CEM leukemia
OVCAR-3 ovarian = tested on: OVCAR-3 ovarian
SF-295 CNS = tested on: SF-295 CNS
A549 NSCLC = tested on: A549 NSCLC
SK-MEL-5 melanoma = tested on: SK-MEL-5 melanoma
SF-268 CNS = tested on: SF-268 CNS

SMILES	GI50 (SR leukemia) [nM]	TGI (SR leukemia) [µM]	GI50 (MDA-MB-435)	TGI (MDA-MB-435) [µM]	GI50 (NCI-H460 lung)	TGI (NCI-H460 lung)	GI50 (IGROV1 ovarian)	TGI (IGROV1 ovarian) [µM]	GI50 (CCRF-CEM leukemia)	TGI (CCRF-CEM leukemia)	GI50 (OVCAR-3 ovarian)	TGI (OVCAR-3 ovarian)	GI50 (SF-295 CNS)	TGI (SF-295 CNS) [µM]	GI50 (A549 NSCLC)	TGI (A549 NSCLC)	GI50 (SK-MEL-5 melanoma)	TGI (SK-MEL-5 melanoma)	GI50 (SF-268 CNS)	TGI (SF-268 CNS)
N#CSc1c[nH]c2cccc(/C=C/C(=O)/C=C(O)/C=C/c3cccc4[nH]cc(SC#N)c34)c12	129	> 33.3	542 nM	1.42	228 nM	0.899 µM	460 nM	1.58	159 nM	6.47 µM	225 nM	1.09 µM	746 nM	2.29	353 nM	2.78 µM	467 nM	982 nM	528 nM	1.86 µM
N/C(=N\O)c1cn(C2OC(CO)C(O)C2O)c2ncnc(N)c12 (stereo not given)	87.6	14.8	75.8 nM	0.263	138 nM	0.987 µM	263 nM	20.7	303 nM	> 38.6 µM	408 nM	9.76 µM	275 nM	7.3	126 nM	20.1 µM	183 nM	356 nM	105 nM	> 21.5 µM
CC1(C)CCC(c2ccc(Cl)cc2)=C(CN2CCN(c3ccc(C(=O)NS(=O)(=O)c4ccc(N[C@H](CCN5CCOCC5)CSc5ccccc5)c(S(=O)(=O)C(F)(F)F)c4)cc3)CC2)C1	2340	> 25.9	1640 nM	3.17	1870 nM	3.71 µM	2370 nM	5.25	61.8 nM	7.43 µM	1620 nM	3 µM	1520 nM	3.2	1730 nM	3.58 µM	1570 nM	2930 nM	2310 nM	5.55 µM
Cc1n[nH]c(C)c1-c1c(C)n[nH]c1C	1210	> 100	1930 nM	4.82	1820 nM	3.85 µM	1800 nM	4.3	1450 nM	> 100 µM	1600 nM	3.05 µM	1810 nM	3.63	1680 nM	4.35 µM	1740 nM	3180 nM	2280 nM	6.91 µM
O=C1Nc2ccc(I)cc2/C1=C/c1cc(Br)c(O)c(Br)c1	> 49500	98.9	15000 nM and 13200 nM	> 100	> 17400 nM and 17000 nM	> 25 µM and 44.1 µM	> 25000 nM and 27800 nM	> 75.5	> 18500 nM and 6240 nM	> 25 µM and 51.3 µM	> 12500 nM and 16700 nM	> 20.6 µM and 36.9 µM	> 15900 nM and 17200 nM	> 100	> 24200 nM and 22700 nM	> 25 µM and 97 µM	13000 nM and 10500 nM	> 25000 nM and 23600 nM	> 21900 nM and 18200 nM	> 25 µM and 68.8 µM
